# Measurements published in paper PMC5114558, “Reader domain specificity and lysine demethylase-4 family function” (Nature Communications, 2016).
# Changes are numbered by the printed parent chain. Like-named read-outs stand apart in the source and are kept apart here. Non-standard residues stand in square brackets, D forms with d. Residues, ends and D or L forms follow the SMILES beside them. *: point of attachment. 5FAM = O=C1OC2(c3ccc(O)cc3Oc3cc(O)ccc32)c2ccc(C(=O)*)cc21; Lys(Me3) = C[N+](C)(C)CCCC[C@H](N)C(=O)O
# Legend:
# [1] = biological target: T1, KDM4A DTD (human KDM4A double tudor domain, 895–1011aa) (Homo sapiens, UniProt O75164); assay: fluorescence polarization (FP) binding, KDM4A-DTD wild-type
# T1 construct: DNA encoding DTDs (KDM4A 895–1011aa, KDM4B 917–1031aa and KDM4C 877–991aa); (His)6-HaloTag (pFN29) or (His)6 (pET28b); made in house; host or cells: Escherichia coli BL21 (DE3)
# T1 sequence (O75164 895-1011): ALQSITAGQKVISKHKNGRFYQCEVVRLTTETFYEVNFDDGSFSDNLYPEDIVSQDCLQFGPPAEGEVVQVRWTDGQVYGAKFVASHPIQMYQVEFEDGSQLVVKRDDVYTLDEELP
# Excerpt: (§1) KDM4 protein sequences used in this study correspond to Uniprot ID: O75164 (human KDM4A, isoform 1), O94953 (human KDM4B, isoform1) and Q9H3R0 (human KDM4C, isoform1). Plasmid encoding KDM4A DTD was kindly provided by R-M Xu (Chinese Academy of Sciences). Complementary DNA encoding human KDM4B-DTD was synthesized (Integrated DNA Technologies). Plasmid containing cDNA of full-length KDM4C (clone ID: HsCD00341594) was obtained from Harvard Plasmid Repository. DNA encoding DTDs (KDM4A 895–1011aa, KDM4B 917–1031aa and KDM4C 877–991aa) were cloned into pFN29 (Promega) with N-terminal (His)6-HaloTag or pET28b with N-terminal (His)6 Tag using In-Fusion HD cloning kit (Clontech). Plasmids encoding Xenopus laevis core histones were a generous gift of K. Luger (University of Colorado-Boulder). Site-directed mutagenesis was performed with Q5 Site-Directed Mutagenesis Kit (New England Biolabs).
# (§2) Peptide sequences are given in Supplementary Table 1. […] A no-protein control with only peptide probe was included. Polarization at each concentration was measured as triplicates in 384-well polystyrene black microplates (Thermo Fisher Scientific 262260) by Biotek Synergy H4 multimode plate reader (light source: xenon flash, offset from top: 7 mm, sensitivity: 60%, excitation: 485/20 nm, emission: 528/20 nm, both parallel and perpendicular, normal read speed). Fraction bound (Fb) at each concentration was calculated based on the corresponding polarization values (P): Fbc=(Pc−Pmin)/(Pmax−Pmin), where Pmin is the polarization value of no-protein control and Pmax is the polarization value of the saturation value for that peptide. Dissociation constants (Kd) were derived by KaleidaGraph, Synergy Software (version 4.1.3) using the following equation: Fb=[protein]/([protein]+Kd).
# [2] = biological target: T2, KDM4B DTD (human KDM4B double tudor domain, 917–1031aa) (Homo sapiens, UniProt O94953); assay: fluorescence polarization (FP) binding, KDM4B-DTD wild-type; settings: matrix Fig. 1d, pH 7.4, read-out: binding affinity (Kd), KDM4B DTD
# T2 construct: DNA encoding DTDs (KDM4A 895–1011aa, KDM4B 917–1031aa and KDM4C 877–991aa); (His)6-HaloTag (pFN29) or (His)6 (pET28b); made in house; host or cells: Escherichia coli BL21 (DE3)
# T2 sequence (O94953 917-1031): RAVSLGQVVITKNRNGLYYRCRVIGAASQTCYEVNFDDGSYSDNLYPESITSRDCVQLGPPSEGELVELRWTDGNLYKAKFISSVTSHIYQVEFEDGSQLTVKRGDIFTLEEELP
# Excerpt: as §1, §2
# [3] = biological target: T3, KDM4C DTD (human KDM4C double tudor domain, 877–991aa) (Homo sapiens, UniProt Q9H3R0); assay: fluorescence polarization (FP) binding, KDM4C-DTD wild-type; settings: matrix Fig. 1d, pH 7.4, read-out: binding affinity (Kd), KDM4C DTD
# T3 construct: DNA encoding DTDs (KDM4A 895–1011aa, KDM4B 917–1031aa and KDM4C 877–991aa); (His)6-HaloTag (pFN29) or (His)6 (pET28b); made in house; host or cells: Escherichia coli BL21 (DE3)
# T3 sequence (Q9H3R0 877-991): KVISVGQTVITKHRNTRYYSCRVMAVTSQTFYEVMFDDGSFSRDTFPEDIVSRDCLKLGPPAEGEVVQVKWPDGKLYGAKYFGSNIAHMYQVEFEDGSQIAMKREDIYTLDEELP
# Excerpt: as §1, with “Plasmids encoding Xenopus laevis core histones were a generous gift of K. Luger (University of Colorado-Boulder). Site-directed mutagenesis was performed with Q5 Site-Directed Mutagenesis Kit (New England Biolabs).” left out
# (§3) Peptide sequences are given in Supplementary Table 1. […] Polarization at each concentration was measured as triplicates in 384-well polystyrene black microplates (Thermo Fisher Scientific 262260) by Biotek Synergy H4 multimode plate reader (light source: xenon flash, offset from top: 7 mm, sensitivity: 60%, excitation: 485/20 nm, emission: 528/20 nm, both parallel and perpendicular, normal read speed). Fraction bound (Fb) at each concentration was calculated based on the corresponding polarization values (P): Fbc=(Pc−Pmin)/(Pmax−Pmin), where Pmin is the polarization value of no-protein control and Pmax is the polarization value of the saturation value for that peptide. […]
# [4] = biological target: T4, KDM4A-DTD triple mutant N931D/D939R/D945R (DRR) (Homo sapiens, UniProt O75164, D939R/D945R/N931D); assay: FP binding, KDM4A-DTD DRR mutant; settings: matrix Fig. 3c, values given in mM, pH 7.4, read-out: binding affinity (Kd), DRR mutant
# T4 construct: DNA encoding DTDs (KDM4A 895–1011aa, KDM4B 917–1031aa and KDM4C 877–991aa); (His)6-HaloTag (pFN29) or (His)6 (pET28b); made in house; host or cells: Escherichia coli BL21 (DE3)
# T4 sequence (O75164 895-1011 N931D/D939R/D945R): T1 sequence (O75164 895-1011) with N37D, D45R, D51R
# Excerpt: as §1, with “Plasmids encoding Xenopus laevis core histones were a generous gift of K. Luger (University of Colorado-Boulder). Site-directed mutagenesis was performed with Q5 Site-Directed Mutagenesis Kit (New England Biolabs).” left out
# as §3
# [5] = test system: KDM4B-DTD; assay: biotinylated histone peptide pull-down, KDM4B-DTD; assay type: binding, human; settings: compared with KDM4A and KDM4C DTDs
# [6] = test system: H3K23me3 antibody; assay: H3K23me3 antibody profiling on histone peptide microarray; settings: scale from zero (no binding) to one (highest binding), Supplementary Fig. 5b-c
# Procedure: Peptide arrays were handled with care and protected from light. All solutions were filtered before putting on the array. Assays were performed with a modified two-chamber simplex gasket (Intuitive Bioscience). After tightening the gasket onto the slide surface, the peptide array was blocked with blocking solution (1 × PBS, 0.05% Tween-20 pH 7.4, 1% BSA) at 4 °C overnight, to reduce nonspecific binding. (1) Reader binding: 10–50 nM purified recombinant HT-KDM4 DTDs were first reacted with excessive HaloTag ligand-biotin (Promega) in blocking solution on ice for 15 min and incubated on peptide array under mild rocking at 4 °C, 1 h. The slide was washed with PBS with 0.05% Tween (PBST) three times and incubated with 1:2,000 streptavidin-conjugated Alexa-Fluor647 (Invitrogen) in blocking solution at room temperature for 1 h. (2) Antibody binding: after blocking, 1:2,500–1:100 dilution H3K23me3 antibody in blocking solution were incubated with peptide microarray under mild rocking at 4 °C, 1 h. The slide was washed with PBST three times and incubated with 1:1,000 anti-rabbit IgG Alexa 647 (Cell Signaling) in blocking solution at room temperature for 1 h. […] Signal intensities were quantified by GenePix Pro 6.1 software (Molecular Devices). […] For each peptide species, an average was calculated from three replicate spots. […]
# [7] = test system: KDM4B full-length protein; assay: MS-based demethylation assay, full-length KDM4B; assay type: biochemical, human; settings: 0.2 μM enzyme, 5–10 μM peptide, pH 7.5, 25 °C, MS read-out; single peptide substrates; Fig. 6a,b
# Procedure: In a typical demethylase reaction, the assay mixture containing 50 mM Tris pH 7.5, 50 mM NaCl, 50 μM (NH4)2Fe(SO4)2, 0.5 mM ascorbic acid, 1 mM α-ketoglutarate and 0.2 μM full-length KDM4A–C (Active Motif) was mixed with 5–10 μM of trimethylated histone peptides (detailed sequence information in Supplementary Table 1). Each peptide concentration was quantified by measuring Abs280nm for peptides containing either tryptophan or tyrosine residue. After incubation of assay mixture at 25 °C for 10, 30 and 60 min time point, 10 μl of aliquot was transferred to a clean tube containing 5 μl of 5% formic acid to quench the reaction. Each quenched sample was treated with standard StageTip protocol using C18 extraction disk (Model 2215, Empore, 3 M) to remove excess salts and detergents in the reaction mixture. Each eluate from StageTip containing peptides was dried at a reduced pressure (vacuum centrifuge) and was re-suspended with 10 μl of 5% acetonitrile solution (0.1% formic acid). The 1 μl of the sample was injected at 0.7 μl min^−1 flow rate onto a Dionex Ultimate 3000 Nano LC system equipped with Atlantis dC18 NanoEase reverse-phase column (3 μm, 100 μm × 150 mm, Waters) and coupled to a hybrid quadrupole-orbitrap MS (Q-Exactive, Thermo Scientific). The peptide was eluted at 4–15 min retention time with a linear gradient of 2–35% acetonitrile (0.1% formic acid). All the solvents used for liquid chromatography MS were HPLC grade (Fisher). For each analysis, MS1 scan range of 300–1,100 m/z was used and data-dependent MS/MS was obtained to identify the site of demethylation. Each peptide peak and its area integration was performed on the XCalibur Qual Browser.
# [8] = matrix Fig. 1d and Fig. 3c, pH 7.4, read-out: binding affinity (Kd), KDM4A DTD wild-type
# [9] = Fig. 2e,g,i,j and Fig. 4g,i, pH 7.4, ± s.d. from three experimental replicates, read-out: binding affinity, KDM4A-DTD wild-type (WT)
molecule,measurement,setting,value
CC(C)C[C@H](NC(=O)[C@H](CCC(N)=O)NC(=O)[C@H](CCCCN)NC(=O)[C@H](CCCNC(=N)N)NC(=O)[C@@H]1CCCN1C(=O)[C@H](C)NC(=O)[C@H](CCCC[N+](C)(C)C)NC(=O)CNC(=O)CNC(=O)[C@@H](NC(=O)[C@H](CO)NC(=O)[C@H](CCCCN)NC(=O)[C@H](CCCNC(=N)N)NC(=O)[C@H](C)NC(=O)c1ccc2c(c1)C(=O)OC21c2ccc(O)cc2Oc2cc(O)ccc21)[C@@H](C)O)C(=O)N[C@@H](C)C(=O)N[C@H](C(=O)N[C@@H](CCCCN)C(=O)O)[C@@H](C)O [H3K14me3] (5FAM-ARKSTGG[Lys(Me3)]APRKQLATK-OH),Kd,[1]; [8],109 µM
CNCCCC[C@H](NC(=O)[C@@H](NC(=O)[C@H](C)NC(=O)[C@H](CC(C)C)NC(=O)[C@H](CCC(N)=O)NC(=O)[C@H](CCCCN)NC(=O)[C@H](CCCNC(=N)N)NC(=O)c1ccc2c(c1)C(=O)OC21c2ccc(O)cc2Oc2cc(O)ccc21)[C@@H](C)O)C(=O)N[C@@H](C)C(=O)N[C@@H](C)C(=O)N[C@@H](CCCNC(=N)N)C(=O)N[C@@H](CCCCN)C(=O)N[C@@H](CO)C(=O)N[C@@H](C)C(=O)N1CCC[C@H]1C(=O)N[C@@H](C)C(=O)N[C@H](C(=O)O)[C@@H](C)O [H3K23me1],Kd,[1]; [9],98.6 ± 5.4 µM
CC(C)C[C@H](NC(=O)[C@H](CCC(N)=O)NC(=O)[C@H](CCCCN)NC(=O)[C@H](CCCNC(=N)N)NC(=O)c1ccc2c(c1)C(=O)OC21c2ccc(O)cc2Oc2cc(O)ccc21)C(=O)N[C@@H](C)C(=O)N[C@H](C(=O)N[C@@H](CCCCN(C)C)C(=O)N[C@@H](C)C(=O)N[C@@H](C)C(=O)N[C@@H](CCCNC(=N)N)C(=O)N[C@@H](CCCCN)C(=O)N[C@@H](CO)C(=O)N[C@@H](C)C(=O)N1CCC[C@H]1C(=O)N[C@@H](C)C(=O)N[C@H](C(=O)O)[C@@H](C)O)[C@@H](C)O [H3K23me2],Kd,"[1]; pH 7.4, read-out: Kd, KDM4A-DTD wild-type",9.06 µM
CC(C)C[C@H](NC(=O)[C@H](CCC(N)=O)NC(=O)[C@H](CCCCN)NC(=O)[C@H](CCCNC(=N)N)NC(=O)c1ccc2c(c1)C(=O)OC21c2ccc(O)cc2Oc2cc(O)ccc21)C(=O)N[C@@H](C)C(=O)N[C@H](C(=O)N[C@@H](CCCC[N+](C)(C)C)C(=O)N[C@@H](C)C(=O)N[C@@H](C)C(=O)N[C@@H](C)C(=O)N[C@@H](CCCCN)C(=O)N[C@@H](CO)C(=O)N[C@@H](C)C(=O)N1CCC[C@H]1C(=O)N[C@@H](C)C(=O)N[C@H](C(=O)O)[C@@H](C)O)[C@@H](C)O [H3K23me3R26A] (5FAM-RKQLAT[Lys(Me3)]AAAKSAPAT-OH),Kd,[1]; [9],32.3 ± 1.8 µM
CC(C)C[C@H](NC(=O)[C@H](CCC(N)=O)NC(=O)[C@H](CCCCN)NC(=O)[C@H](CCCNC(=N)N)NC(=O)c1ccc2c(c1)C(=O)OC21c2ccc(O)cc2Oc2cc(O)ccc21)C(=O)N[C@@H](C)C(=O)N[C@H](C(=O)N[C@@H](CCCCN)C(=O)N[C@@H](C)C(=O)N[C@@H](C)C(=O)N[C@@H](CCCNC(=N)N)C(=O)N[C@@H](CCCC[N+](C)(C)C)C(=O)N[C@@H](CO)C(=O)N[C@@H](C)C(=O)N1CCC[C@H]1C(=O)N[C@@H](C)C(=O)N[C@H](C(=O)O)[C@@H](C)O)[C@@H](C)O [H3K27me3],Kd,[2],140 µM
same,Kd,[3],103 µM
same,Kd,[1]; [8],122 µM
same,Kd,[4],0.57 mM
CC(C)C[C@H](NC(=O)[C@H](CCC(N)=O)NC(=O)[C@H](CCCCN)NC(=O)[C@H](CCCNC(=N)N)NC(=O)c1ccc2c(c1)C(=O)OC21c2ccc(O)cc2Oc2cc(O)ccc21)C(=O)N[C@@H](C)C(=O)N[C@H](C(=O)N[C@@H](CCCC[N+](C)(C)C)C(=O)N[C@@H](C)C(=O)N[C@@H](C)C(=O)N[C@@H](CCCNC(=N)N)C(=O)N[C@@H](CCCCN)C(=O)N[C@@H](CO)C(=O)N[C@@H](C)C(=O)N1CCC[C@H]1C(=O)N[C@@H](C)C(=O)N[C@H](C(=O)O)[C@@H](C)O)[C@@H](C)OP(=O)(O)O [H3T22phK23me3],Kd,[1]; [9],83.7 ± 4.1 µM
"ARTK(Me3)QTARKSTE(PEGbiotin)W [H3K4me3 (biotinylated), H3K4me3 peptide for pull-down, PEGbiotin, in-house]",pull-down binding of KDM4B-DTD,[5],Decreased
"H3K36me3: demethylation assay peptide, Tufts University Core Facility",relative signal intensity with H3K23me3 antibody,[6],less than 0.1
same,demethylation by full-length KDM4B,[7],consistent H3K36me3 demethylation
"RKQLATK(Me3)AARK(Me3)SAPATGGW [H3K23me3K27me3, demethylation assay peptide, Peptide 2.0]",demethylation by full-length KDM4B,[7],lack of measurable demethylation
"RKQLATKAARK(Me3)SAPATGGW [H3K27me3 peptide, demethylation assay peptide, Peptide 2.0]",demethylation by full-length KDM4B,[7],did not detect significant demethylation
